Results on 74 compounds are retold here after US8981111B2 (priority 2008, dated 2015).

The nature of the first data set: log P (HPLC/MS data of the preparation examples). The following applies: LC-MS, method [b]: pH 2.7 with 0.1% formic acid in water and acetonitrile, linear gradient 10% to 95% acetonitrile.
Turning to `CC(C)CC(=O)Nc1ccnc(CON=C(c2ccccc2)c2cnnn2C)n1` [Example 82], the log p is 2.77^[b].
The same measure, in the same setting: the same measure for `Cn1nncc1C(=NOCc1csc(NC(=O)C(C)(C)C)n1)c1ccccc1` [Example 83]: 3.06^[b]; for `CCCCCOC(=O)Nc1nc(CON=C(c2ccccc2)c2cnnn2C)cs1` [Example 84]: 3.76^[b].
On to `CCCCCC(=O)Nc1nc(CON=C(c2ccccc2)c2cnnn2C)cs1` [Example 85], for which the log p is 3.44^[b].
As for `CC(C)CC(=O)Nc1nc(CON=C(c2ccccc2)c2cnnn2C)cs1` [Example 86], the log p was 3^[b].
On the same count and under the same terms, the figure for `CCCCCOC(=O)Nc1ccnc(CON=C(c2ccccc2)c2cnnn2C)n1` [Example 87] is 3.55^[b].
The same measure, in the same setting: the figure for `CCCCCCOC(=O)Nc1cccc(CON=C(c2ccccc2)c2ncnn2C)n1` [Example 88] is 4.36^[b].
On to `CCCOC(=O)Nc1cccc(CON=C(c2ccccc2)c2ncnn2C)n1` [Example 89], for which the log p was 3.15^[b].
In the case of `Cn1cncc1C(=NOCc1cccc(N2C(=O)c3ccccc3C2=O)n1)c1ccccc1` [Example 90], the log p is 1.81^[b].
Same read-out and setting: the figure for `CCCCOC(=O)Nc1cccc(CON=C(c2ccccc2)c2ncnn2C)n1` [Example 91] is 3.53^[b].
Same read-out and setting: the same measure for `Cn1ncnc1C(=NOCc1cccc(NC(=O)OCCCCCl)n1)c1ccccc1` [Example 92]: 3.39^[b].
On the same count and under the same terms, the figure for `CCOC(=O)Nc1cccc(CON=C(c2ccccc2)c2ncnn2C)n1` [Example 93] is 2.71^[b].
Consider `C#CCCOC(=O)Nc1cccc(CON=C(c2ccccc2)c2ncnn2C)n1` [Example 94], for which the log p is 2.82^[b].
As for `Cn1cncc1C(=NOCc1nccc(N)n1)c1ccccc1` [Example 95], the log p is 0.01^[b].
On the same count and under the same terms, the figure for `CC(C)CC(=O)Nc1nc(CON=C(c2ccccc2)c2ncnn2C)cs1` [Example 96] is 2.88^[b]; for `Cn1cncc1C(=NOCc1nccc(NC(=O)C(C)(C)C)n1)c1ccccc1` [Example 99] it is 1.76^[b]; for `Cn1ncnc1C(=NOCc1csc(NC(=O)C(C)(C)C)n1)c1ccccc1` [Example 101] it is 2.92^[b].
Regarding `Cn1c(C(=NOCc2nccc(NC(=O)C(C)(C)C)n2)c2ccccc2)cnc1C(=O)C(C)(C)C` [Example 102], the log p was 4.84^[b].
For the compound `CC(C)C=C(OC(=O)CC(C)C)c1ncc(C(=NOCc2nccc(NC(=O)CC(C)C)n2)c2ccccc2)n1C` [Example 103], the log p is 4.04^[b].
On the same count and under the same terms, the figure for `Cn1cncc1C(=NOCc1nccc(N(C(=O)C2CC2)C(=O)C2CC2)n1)c1ccccc1` [Example 104] is 1.75^[b]; for `CCCCCCCOC(=O)Nc1cccc(CON=C(c2ccccc2)c2ncnn2C)n1` [Example 106] it is 4.86^[b].
For the compound `Cn1ncnc1C(=NOCc1cccc(NC(=O)CCc2ccccc2)n1)c1ccccc1` [Example 107], the log p was 3.33^[b].
`CC(C)C(=O)Nc1ccnc(CON=C(c2ccccc2)c2cnc(C(=O)C(C)C)n2C)n1` [Example 109]: the log p is 3.62^[b].
In the case of `CC(C)=C(OC(=O)C(C)C)c1ncc(C(=NOCc2nccc(NC(=O)C(C)C)n2)c2ccccc2)n1C` [Example 110], the log p was 2.77^[b].
Still for that read-out and setting: the same measure for `Cn1cncc1C(=NOCc1csc(N)n1)c1ccccc1` [Example 111]: 0.69^[b]; for `CC(C)CC(=O)Nc1ccnc(CON=C(c2ccccc2)c2cncn2C)n1` [Example 112]: 1.99^[b]; for `CCCCCOC(=O)N(C)c1cccc(CON=C(c2ccccc2)c2ncnn2C)n1` [Example 113]: 4.39^[b].
Same read-out and setting: the figure for `CCCCCOC(=O)Nc1ccnc(CON=C(c2ccccc2)c2cncn2C)n1` [Example 115] is 2.66^[b]; for `CCCCCC(=O)Nc1nc(CON=C(c2ccccc2)c2cncn2C)cs1` [Example 116] it is 2.08^[b]; for `Cn1cncc1C(=NOCc1csc(NC(=O)C(C)(C)C)n1)c1ccccc1` [Example 117] it is 1.84^[b].
Still for that read-out and setting: the figure for `CC(C)CC(=O)Nc1nc(CON=C(c2ccccc2)c2cncn2C)cs1` [Example 118] is 1.84^[b]; for `CC(C)C(=O)Nc1nc(CON=C(c2ccccc2)c2cncn2C)cs1` [Example 119] it is 1.63^[b].
In the case of `CCCCCC(=O)Nc1cccc(CON=C(c2ccccc2)c2cncn2C)n1` [Example 120], the log p was 2.11^[b].
On the same count and under the same terms, the same measure for `CC(C)CC(=O)Nc1cccc(CON=C(c2ccccc2)c2cncn2C)n1` [Example 121]: 1.84^[b].
For the compound `CC(C)C(=O)Nc1ccnc(CON=C(c2ccccc2)c2cncn2C)n1` [Example 124], the log p was 1.49^[b].
`CC(C)C(=O)Nc1cccc(CON=C(c2ccccc2)c2cncn2C)n1` [Example 125]: the log p is 1.63^[b].
On the same count and under the same terms, the same measure for `Cn1cncc1C(=NOCc1csc(NC(=O)COc2ccccc2)n1)c1ccccc1` [Example 127]: 2.01^[b].
The same measure, in the same setting: the same measure for `CCCCC(=O)Nc1ccnc(CON=C(c2ccccc2)c2cncn2C)n1` [Example 128]: 1.75^[b]; for `CCCC(=O)Nc1ccnc(CON=C(c2ccccc2)c2cncn2C)n1` [Example 129]: 1.5^[b].
On the same count and under the same terms, the figure for `CCCCCCC(=O)Nc1ccnc(CON=C(c2ccccc2)c2cncn2C)n1` [Example 130] is 2.2^[b].
With `CCCCCCCCCC(=O)Nc1ccnc(CON=C(c2ccccc2)c2cncn2C)n1` [Example 131], the log p is 2.98^[b].
On to `Cn1cncc1C(=NOCc1nccc(NC(=O)COc2ccccc2)n1)c1ccccc1` [Example 132], for which the log p was 1.86^[b].
Consider `Cn1ccnc1C(=NOCc1csc(N)n1)c1ccccc1` [Example 133], for which the log p was 0.75^[b].
On the same count and under the same terms, the figure for `Cn1ncnc1C(=NOCc1cccc(CNC(=O)CCc2ccccc2)n1)c1ccccc1` [Example 134] is 2.56^[b]; for `CCCCC(=O)NCc1cccc(CON=C(c2ccccc2)c2ncnn2C)n1` [Example 135] it is 2.28^[b]; for `CC(C)CC(=O)NCc1cccc(CON=C(c2ccccc2)c2ncnn2C)n1` [Example 136] it is 2.23^[b].
Same read-out and setting: the same measure for `Cn1ncnc1C(=NOCc1cccc(CNC(=O)C(C)(C)C)n1)c1ccccc1` [Example 137]: 2.28^[b].

The same data set, now with this note: method [b]: LC-MS at pH 2.7, 0.1% formic acid in water / acetonitrile, linear gradient 10% to 95% acetonitrile.
Consider `Cn1ncnc1C(=NOCc1cccc(CNC(=O)Cc2ccccc2)n1)c1ccccc1` [Example 138], for which the log p was 2.44^[b].
Turning to `CCCCCC(=O)NCc1cccc(CON=C(c2ccccc2)c2ncnn2C)n1` [Example 140], the log p is 2.62^[b].
Still for that read-out and setting: the same measure for `CCCCOC(=O)NCc1cccc(CON=C(c2ccccc2)c2ncnn2C)n1` [Example 141]: 2.84^[b]; for `Cn1nc(C(=NOCc2cccc(N3C(=O)c4ccccc4C3=O)n2)c2ccccc2)n(C)c1=O` [Example 142]: 2.66^[b]; for `Cn1cnnc1C(=NOCc1cccc(N2C(=O)c3ccccc3C2=O)n1)c1ccccc1` [Example 144]: 2.3^[b].
As to `CCCCCOC(=O)Nc1cccc(CON=C(c2ccccc2)c2nn(C)c(=O)n2C)n1` [Example 146], the log p is 3.8^[b].
Turning to `Cn1nc(C(=NOCc2cccc(NC(=O)C(C)(C)C)n2)c2ccccc2)n(C)c1=O` [Example 147], the log p was 2.86^[b].
Same read-out and setting: the same measure for `CC(C)CC(=O)Nc1cccc(CON=C(c2ccccc2)c2nn(C)c(=O)n2C)n1` [Example 148]: 2.82^[b].
For `Cn1nc(C(=NOCc2cccc(NC(=O)Cc3ccccc3)n2)c2ccccc2)n(C)c1=O` [Example 149], the log p is 2.94^[b].
Take `Cn1nc(C(=NOCc2cccc(NC(=O)CCc3ccccc3)n2)c2ccccc2)n(C)c1=O` [Example 150]: the log p was 3.19^[b].
The same measure, in the same setting: the figure for `Cn1nc(C(=NOCc2cccc(NC(=O)CC(F)(F)F)n2)c2ccccc2)n(C)c1=O` [Example 151] is 2.66^[b]; for `Cn1nc(C(=NOCc2cccc(NC(=O)c3cccs3)n2)c2ccccc2)n(C)c1=O` [Example 152] it is 2.82^[b]; for `Cn1nc(C(=NOCc2cccc(NC(=O)CCC3CCCC3)n2)c2ccccc2)n(C)c1=O` [Example 153] it is 3.71^[b].
The same measure, in the same setting: the same measure for `Cn1ccnc1C(=NOCc1nccc(NC(=O)C2CC2)n1)c1ccccc1` [Example 154]: 1.5^[b]; for `Cn1ccnc1C(=NOCc1nccc(NC(=O)Cc2ccccc2)n1)c1ccccc1` [Example 155]: 2.01^[b]; for `Cn1cnnc1C(=NOCc1cccc(N)n1)c1ccccc1` [Example 156]: 0.88^[b].
With `CCCCCOC(=O)Nc1cccc(CON=C(c2ccccc2)c2nncn2C)n1` [Example 157], the log p is 3.29^[b].
Consider `Cn1cnnc1C(=NOCc1cccc(NC(=O)Cc2ccccc2)n1)c1ccccc1` [Example 158], for which the log p is 2.56^[b].
The same measure, in the same setting: the figure for `CC(C)COC(=O)Nc1cccc(CON=C(c2ccccc2)c2nncn2C)n1` [Example 159] is 2.88^[b].
As for `Cn1cnnc1C(=NOCc1cccc(NC(=O)CC(F)(F)F)n1)c1ccccc1` [Example 160], the log p is 2.28^[b].
On the same count and under the same terms, the same measure for `Cn1ncnc1C(=NOCc1cccc(CN2C(=O)c3ccccc3C2=O)n1)c1ccccc1` [Example 161]: 2.9^[b]; for `Cn1ncnc1C(=NOCc1cccc(CN)n1)c1ccccc1` [Example 162]: 0.99^[b]; for `Cc1cccc(C(=NOCc2cccc(N)n2)c2ncnn2C)c1` [Example 164]: 1.08^[b].
`Cn1nncc1C(=NOCc1csc(N)n1)c1ccccc1` [Example 165]: the log p was 1.29^[b].
Take `Cn1ccnc1C(=NOCc1nccc(NC(=O)C(C(=O)Cc2ccccc2)c2ccccc2)n1)c1ccccc1` (centres unmarked) [Example 166]: the log p is 2.59^[b].
As for `Cn1cnnc1C(=NOCc1cccc(NC(=O)C(C)(C)C)n1)c1ccccc1` [Example 167], the log p was 2.44^[b].
Turning to `Cc1nc(C(=NOCc2cccc(NC(=O)C(C)(C)C)n2)c2ccccc2)cs1` [Example 172], the log p was 3.56^[b].
